Test results reported in ChEMBL document CHEMBL1149456, “Substituted 4-hydroxyphenyl sulfonamides as pathway-selective estrogen receptor ligands” (Bioorg Med Chem Lett, 2006).
pEC50, pIC50: −log10 of the molar value.

Assays:
Estrogen receptor [1] = target: T1, Estrogen receptor (Homo sapiens, UniProt P03372); assay: Inhibition of binding to ER in Ad5-wt-ER-infected HAECT1 cells by NF-kappaB-mediated luciferase reporter; format: functional, cell-based; settings: for IC50: haect1; for pIC50: read-out: IC50
T1 sequence (P03372 whole entry): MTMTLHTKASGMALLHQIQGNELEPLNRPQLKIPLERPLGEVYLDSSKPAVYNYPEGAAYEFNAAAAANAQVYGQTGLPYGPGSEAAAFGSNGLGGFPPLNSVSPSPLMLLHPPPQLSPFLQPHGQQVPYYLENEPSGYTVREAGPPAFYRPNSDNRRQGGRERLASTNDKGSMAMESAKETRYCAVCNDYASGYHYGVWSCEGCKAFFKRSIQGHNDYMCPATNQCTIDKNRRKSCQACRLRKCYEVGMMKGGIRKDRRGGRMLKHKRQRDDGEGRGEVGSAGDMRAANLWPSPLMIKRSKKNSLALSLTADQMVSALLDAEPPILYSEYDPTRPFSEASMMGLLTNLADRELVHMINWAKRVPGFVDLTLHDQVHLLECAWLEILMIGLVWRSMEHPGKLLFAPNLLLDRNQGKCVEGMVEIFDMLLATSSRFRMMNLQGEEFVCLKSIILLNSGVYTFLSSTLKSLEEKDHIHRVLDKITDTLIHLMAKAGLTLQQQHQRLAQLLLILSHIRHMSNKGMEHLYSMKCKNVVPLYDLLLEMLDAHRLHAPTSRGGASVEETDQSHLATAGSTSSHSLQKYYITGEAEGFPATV

Estrogen receptor [2] = target: T1, Estrogen receptor; assay: Effect on binding to ER in Ad5-wt-ER-infected HAECT1 cells by creatine kinase expression; format: functional, cell-based; settings: for pEC50: read-out: EC50; for EC50: haect1

SMILES	IC50 (Estrogen receptor [1])	pIC50 (Estrogen receptor [1])	pEC50 (Estrogen receptor [2])	EC50 (Estrogen receptor [2])
CN(c1ccccc1)S(=O)(=O)c1ccc(O)cc1	Not Active	–	–	–
CCN(c1ccccc1)S(=O)(=O)c1ccc(O)c(C)c1	–	6.48	5.67	–
O=S(=O)(c1ccc(O)cc1)N(c1ccccc1)C1CCCCC1	–	6.06	6.27	–
O=S(=O)(c1ccc(O)cc1)N(Cc1ccccc1)c1ccccc1	–	6.30	6.62	–
CCCN(c1c(C)cccc1C)S(=O)(=O)c1ccc(O)c(C)c1	–	7.85	7.12	–
CCCN(c1ccccc1Br)S(=O)(=O)c1ccc(O)c(C(F)(F)F)c1	–	7.22	–	Not Active
CCCN(c1ccccc1C)S(=O)(=O)c1ccc(O)c(C)c1	–	6.96	6.03	–
CCN(c1ccc(O)cc1)S(=O)(=O)c1ccc(O)cc1	–	6.57	5.86	–
CCN(c1ccccc1)S(=O)(=O)c1ccc(O)cc1	–	6.39	5.80	–
CCCN(c1c(C)cccc1Cl)S(=O)(=O)c1ccc(O)c(C)c1	–	7.59	6.82	–
CCCN(c1ccccc1Br)S(=O)(=O)c1ccc(O)c(C)c1	–	7.40	6.32	–
O=S(=O)(c1ccc(O)cc1)N(c1ccccc1)c1ccccc1	–	6.39	5.81	–
CC(C)N(c1ccccc1)S(=O)(=O)c1ccc(O)cc1	–	6.06	5.70	–
CCCCN(c1ccccc1)S(=O)(=O)c1ccc(O)cc1	–	6.50	6.15	–
O=S1(=O)c2ccc(O)cc2CCN1c1ccccc1Cl	–	6.05	–	Not Active
CCN(c1ccccc1Br)S(=O)(=O)c1ccc(O)cc1	–	7.05	6.42	–
CCCN(c1ccccc1Cl)S(=O)(=O)c1ccc(O)c(C)c1	–	7.29	6.19	–
CCN(c1ccc(OC)cc1)S(=O)(=O)c1ccc(O)cc1	Not Active	–	–	–
CCCN(c1ccccc1F)S(=O)(=O)c1ccc(O)cc1	–	7.13	6.79	–

SMILES	IC50 (Estrogen receptor [1])	pIC50 (Estrogen receptor [1])	pEC50 (Estrogen receptor [2])	EC50 (Estrogen receptor [2])
CCCN(c1ccccc1)S(=O)(=O)c1ccc(O)cc1	–	6.52	5.84	–
CCCN(c1ccccc1C(F)(F)F)S(=O)(=O)c1ccc(O)cc1	–	7.27	6.61	–
CCN(c1ccccc1)S(=O)(=O)c1ccc(O)c(OC)c1	Not Active	–	–	–
CCN(c1ccccc1OC)S(=O)(=O)c1ccc(O)cc1	–	6.08	5.66	–
CCCN(c1c(CC)cccc1CC)S(=O)(=O)c1ccc(O)c(C)c1	–	8.30	6.67	–
CCCN(c1c(C)cccc1Cl)S(=O)(=O)c1ccc(O)cc1	–	7.62	7.20	–
CCCN(c1ccccc1Cl)S(=O)(=O)c1ccc(O)cc1	–	7.38	6.84	–
CCCN(c1ccccc1-c1ccccc1)S(=O)(=O)c1ccc(O)c(C)c1	–	6.60	< 5.54	–
O=S(=O)(c1ccc(O)cc1)N(CCO)c1ccccc1	Not Active	–	–	–
CCCN(c1c(C)cccc1CC)S(=O)(=O)c1ccc(O)c(C)c1	–	8.15	7.92	–
CCN(c1cccc(OC)c1)S(=O)(=O)c1ccc(O)cc1	–	5.70	6.08	–
CC1CCc2ccccc2N1S(=O)(=O)c1ccc(O)cc1 (stereo not drawn)	–	6.32	< 6.00	–
CC(C)(C)CN(c1ccccc1)S(=O)(=O)c1ccc(O)cc1	–	5.86	< 5.60	–
CCCN(c1c(Cl)cccc1Cl)S(=O)(=O)c1ccc(O)c(C)c1	–	7.80	6.42	–
C=CCN(c1ccccc1)S(=O)(=O)c1ccc(O)cc1	–	6.63	6.22	–
O=S(=O)(c1ccc(O)cc1)N1CCCc2ccccc21	Not Active	–	–	–
O=S(=O)(Nc1ccccc1)c1ccc(O)cc1	Not Active	–	–	–
CCCN(c1ccccc1Br)S(=O)(=O)c1ccc(O)cc1	–	7.59	6.82	–
